Reference: PMC11450120, “One-pot synthesis, characterization and antiviral properties of new benzenesulfonamide-based spirothiazolidinones” (Molecular Diversity, 2024)
Where two headings read alike, the source gives them in different places.

What was measured:
[1] = tested on: influenza A/H1N1 (A/Virginia/ATCC3/2009) virus; experiment: Influenza virus CPE reduction assay in MDCK cells, A/H1N1; assay type: cell-based
[2] = tested on: Madin-Darby canine kidney (MDCK) cells; conditions: for cytotoxicity at the highest concentration tested: at 100 μM
[3] = tested on: influenza B virus (B/Ned/537/05); experiment: Influenza virus CPE reduction assay in MDCK cells, influenza B; assay type: cell-based; conditions: read-out: Antiviral EC50 Influenza B Microscopy
in vitro = conditions: dog
[4] = tested on: influenza A/H3N2 (A/HK/7/87) virus; experiment: Influenza virus CPE reduction assay in MDCK cells, A/H3N2; assay type: cell-based
[5] = Influenza A virus, 96 h, CPE by microscopic scoring, 4 days at 35 °C, read-out: Antiviral EC50 Influenza A/H1N1 Microscopy
[6] = Influenza A virus, 96 h, MTS cell viability assay, 4 days at 35 °C, read-out: Antiviral EC50 Influenza A/H1N1 MTS
[7] = Influenza B virus, 96 h, CPE by microscopic scoring, 4 days at 35 °C
[8] = Influenza A virus, H3N2, 96 h, CPE by microscopic scoring, 4 days at 35 °C, read-out: Antiviral EC50 Influenza A/H3N2 Microscopy
[9] = Influenza A virus, H3N2, 96 h, MTS cell viability assay, 4 days at 35 °C, read-out: Antiviral EC50 Influenza A/H3N2 MTS
[10] = Influenza A virus, read-out: EC50 against influenza A/H1N1 virus (range over microscopy and MTS)

SMILES	EC50 [1, 5] [nM]	EC50 [1, 6] [nM]	Cytotoxicity MCC (minimal cytotoxic concentration) ([2]; dog) [µM]	EC50 [3, 7] [nM]	CC50 (in vitro) [µM]	melting point [°C]	EC50 [4, 8] [nM]	EC50 [4, 9] [nM]	EC50 ([1]; MTS assay, BXA concentration unit nM, read-out: Antiviral EC50 Influenza A/H1N1 MTS) [nM]	EC50 ([1]; microscopic scoring, BXA concentration unit nM, read-out: Antiviral EC50 Influenza A/H1N1 Microscopy) [nM]	CC50 [2] [µM]	Cytotoxicity MCC (minimal cytotoxic concentration) [2] [µM]	EC50 ([3]; microscopic scoring, BXA concentration unit nM) [nM]	EC50 ([4]; MTS assay, BXA concentration unit nM, read-out: Antiviral EC50 Influenza A/H3N2 MTS) [nM]	EC50 ([4]; microscopic scoring, BXA concentration unit nM, read-out: Antiviral EC50 Influenza A/H3N2 Microscopy) [nM]	activity against influenza A/H1N1 virus (in words) [1]	EC50 [1, 10] [nM]	cytotoxicity at the highest concentration tested [2]
COc1cc(S(N)(=O)=O)ccc1C(=O)NN1C(=O)C(C)SC12CCC(C(F)(F)F)CC2 (stereo not drawn) [3 g, 2-Methoxy-N-(2-methyl-3-oxo-1-thia-8-trifluoromethyl-4-azaspiro[4.5]decan-4-yl)-4-sulfamoylbenzamide]	> 100000	> 100000	100	> 100000	> 100	210 to 214	> 100000	> 100000										
COc1cc(S(N)(=O)=O)ccc1C(=O)NN1C(=O)C(C)SC12CCC(c1ccccc1)CC2 (stereo not drawn) [3 h, 2-Methoxy-N-(2-methyl-3-oxo-8-phenyl-1-thia-4-azaspiro[4.5]decan-4-yl)-4-sulfamoylbenzamide]	> 100000	> 100000	100	> 100000	> 100	290 to 292	> 100000	> 100000										
O=C1c2c(O)c(=O)ccn2N([C@@H]2c3ccccc3SCc3c2ccc(F)c3F)[C@@H]2COCCN12 [BXA, baloxavir acid, reference compound]									1.5	1.8	> 0.02	> 0.02	8.3	1.7	2			
COc1cc(S(N)(=O)=O)ccc1C(=O)NN1C(=O)C(C)SC12CCCC(C)C2 (stereo not drawn) [Compound 3a, 2-Methoxy-N-(2,7-dimethyl-3-oxo-1-thia-4-azaspiro[4.5]decan-4-yl)-4-sulfamoylbenzamide]	> 100000	76000	> 100	> 100000	> 100	261 to 264	> 100000	64000										
COc1cc(S(N)(=O)=O)ccc1C(=O)NN1C(=O)C(C)SC12CCC(C)CC2 (stereo not drawn) [Compound 3b, 2-Methoxy-N-(2,8-dimethyl-3-oxo-1-thia-4-azaspiro[4.5]decan-4-yl)-4-sulfamoylbenzamide]	> 100000	> 100000	> 100	> 100000	> 100	258 to 261	> 100000	> 100000										
CCC1CCC2(CC1)SC(C)C(=O)N2NC(=O)c1ccc(S(N)(=O)=O)cc1OC (stereo not drawn) [Compound 3c, 2-Methoxy-N-(8-ethyl-2-methyl-3-oxo-1-thia-4-azaspiro[4.5]decan-4-yl)-4-sulfamoylbenzamide]	> 100000	80000	100	> 100000	> 100	270 to 272	> 100000	> 100000										
CCCC1CCC2(CC1)SC(C)C(=O)N2NC(=O)c1ccc(S(N)(=O)=O)cc1OC (stereo not drawn) [Compound 3d, 2-Methoxy-N-(2-methyl-3-oxo-8-propyl-1-thia-4-azaspiro[4.5]decan-4-yl)-4-sulfamoylbenzamide]	45000	39000	100	> 100000	> 100	274 to 276	> 100000	> 100000								weak activity	35000 to 45000	no cytotoxicity
COc1cc(S(N)(=O)=O)ccc1C(=O)NN1C(=O)C(C)SC12CCC(C(C)(C)C)CC2 (stereo not drawn) [Compound 3e, 2-Methoxy-N-(2-methyl-3-oxo-8-tert-butyl-1-thia-4-azaspiro[4.5]decan-4-yl)-4-sulfamoylbenzamide]	45000	35000	> 100	> 100000	> 100	301 to 304	> 100000	68000								weak activity	35000 to 45000	no cytotoxicity
CCC(C)(C)C1CCC2(CC1)SC(C)C(=O)N2NC(=O)c1ccc(S(N)(=O)=O)cc1OC (stereo not drawn) [Compound 3f, 2-Methoxy-N-(2-methyl-3-oxo-8-tert-pentyl-1-thia-4-azaspiro[4.5]decan-4-yl)-4-sulfamoylbenzamide]	> 100000	> 100000	> 100	> 100000	> 100	290 to 295	> 100000	> 100000										
COc1cc(S(N)(=O)=O)ccc1C(=O)NN1C(=O)C(C)SC12CCC(C#N)(c1ccccc1)CC2 (stereo not drawn) [Compound 3i, 2-Methoxy-N-(8-cyano-2-methyl-3-oxo-8-phenyl-1-thia-4-azaspiro[4.5]decan-4-yl)-4-sulfamoylbenzamide]	> 100000	74000	> 100	> 100000	> 100	265 to 270	> 100000	> 100000										
COc1cc(S(N)(=O)=O)ccc1C(=O)NN1C(=O)C(C)SC12CCC(NC(C)=O)CC2 (stereo not drawn) [Compound 3j, 2-Methoxy-N-(8-acetamido-2-methyl-3-oxo-1-thia-4-azaspiro[4.5]decan-4-yl)-4-sulfamoylbenzamide]	> 100000	> 100000	> 100	> 100000	> 100		> 100000	> 100000										
NC(=O)c1ncn([C@@H]2O[C@H](CO)[C@@H](O)[C@H]2O)n1 [Ribavirin, reference compound]	45000	25000		10000	> 100		40000	26000										
CC(=O)N[C@H]1[C@H]([C@H](O)[C@H](O)CO)OC(C(=O)O)=C[C@@H]1N=C(N)N [Zanamivir, reference compound]	> 100000	> 100000	> 100	< 800	> 100		< 800	< 800										
